The test deals with ATP-dependent translocase ABCB1 (Homo sapiens, UniProt P08183). The test is described as follows: TP_TRANSPORTER: increase in Daunorubicn intracellular accumulation (Daunorubicin: ? uM) in NIH-G185 cells. The class given is functional, cell-based.
Sequence of ATP-dependent translocase ABCB1 (P08183 whole entry): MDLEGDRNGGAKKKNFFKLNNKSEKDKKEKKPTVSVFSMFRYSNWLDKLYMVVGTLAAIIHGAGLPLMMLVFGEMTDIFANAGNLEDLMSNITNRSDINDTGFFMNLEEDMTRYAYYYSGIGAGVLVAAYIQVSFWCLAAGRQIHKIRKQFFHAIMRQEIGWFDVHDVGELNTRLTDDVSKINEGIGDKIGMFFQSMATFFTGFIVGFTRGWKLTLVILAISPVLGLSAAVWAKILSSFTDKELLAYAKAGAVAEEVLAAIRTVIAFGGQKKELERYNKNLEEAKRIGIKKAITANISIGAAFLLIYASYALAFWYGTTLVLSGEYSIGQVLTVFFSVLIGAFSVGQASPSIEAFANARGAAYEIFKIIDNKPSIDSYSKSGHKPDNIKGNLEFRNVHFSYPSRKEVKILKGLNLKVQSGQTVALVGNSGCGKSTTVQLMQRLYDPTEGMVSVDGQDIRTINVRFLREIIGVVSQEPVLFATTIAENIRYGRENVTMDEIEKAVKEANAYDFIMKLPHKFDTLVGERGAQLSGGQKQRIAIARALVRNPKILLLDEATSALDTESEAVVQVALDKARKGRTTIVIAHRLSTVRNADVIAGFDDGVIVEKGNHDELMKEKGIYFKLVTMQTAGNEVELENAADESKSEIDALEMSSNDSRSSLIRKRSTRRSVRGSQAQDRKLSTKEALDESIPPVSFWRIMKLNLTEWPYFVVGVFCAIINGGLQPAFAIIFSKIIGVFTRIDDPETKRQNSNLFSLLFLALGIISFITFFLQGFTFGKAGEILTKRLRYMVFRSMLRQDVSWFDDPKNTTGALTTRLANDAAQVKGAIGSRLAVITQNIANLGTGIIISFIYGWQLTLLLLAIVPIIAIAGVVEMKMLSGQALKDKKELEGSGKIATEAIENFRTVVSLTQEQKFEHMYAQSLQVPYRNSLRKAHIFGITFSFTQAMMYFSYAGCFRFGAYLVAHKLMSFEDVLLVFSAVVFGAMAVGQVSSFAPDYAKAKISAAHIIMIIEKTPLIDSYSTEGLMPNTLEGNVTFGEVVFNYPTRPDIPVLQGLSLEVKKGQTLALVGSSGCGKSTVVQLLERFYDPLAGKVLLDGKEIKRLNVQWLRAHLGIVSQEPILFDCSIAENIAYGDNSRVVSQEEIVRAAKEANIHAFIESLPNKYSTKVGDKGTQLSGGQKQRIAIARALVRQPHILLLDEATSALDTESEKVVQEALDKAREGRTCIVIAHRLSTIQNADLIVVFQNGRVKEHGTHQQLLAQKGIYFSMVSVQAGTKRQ

What is called IC50 is the point on the concentration scale where inhibition reaches its midpoint. A lower IC50 goes with higher potency. Turning to `CC(C)CCC[C@@H](C)[C@H]1CC[C@H]2[C@@H]3CC=C4C[C@@H](O)CC[C@]4(C)[C@H]3CC[C@]12C` [CHOLESTEROL], the IC50 is 8.2 µM.

Source of the values: ChEMBL document CHEMBL2073853, “Cholesterol interaction with the daunorubicin binding site of P-glycoprotein” (Biochem Biophys Res Commun, 2000).
